From US8129396B2, “2-[1H-benzimidazol-2(3H)-ylidene]-2-(pyrimidin-2-yl)acetamides and 2-[benzothiazol-2(3H)-ylidene]-2-(pyrimidin-2-yl)acetamides as kinase inhibitors” (Telik, Inc., priority 2008, dated 2012) come the findings set out here.

One experiment concerns the target T1, VEGFR2 kinase (Homo sapiens, UniProt P35968).
T1 construct: purchased Cell Signaling Technology
Description: VEGFR2 kinase assay. The class given is biochemical. The conditions noted are these: 6 μM ATP, 1 mM MnCl2; rounded to 1 significant figure. An excerpt:
(§1) The cell lines HL60 (human promyelocytic leukemia) and HCT116 (human colon carcinoma) were obtained from the American Type Culture Collection, Manassas, Va., U.S.A., and HUVEC-2 (human umbilical vein endothelial cells) from BD Biosciences, Bedford, Mass., U.S.A. Aurora A kinase was obtained from Upstate Biotech, Billerica, Mass., U.S.A.; Aurora B kinase from BPS Bioscience, San Diego, Calif., U.S.A.; and VEGFR2 kinase from Cell Signaling Technology, Danvers, Mass., U.S.A. The IMAP FP Screening Express kit was obtained from Molecular Devices, Sunnyvale, Calif., U.S.A.; the CellTiter-Glo assay kit from Promega Corporation, Madison, Wis., U.S.A.; and the Cellular DNA Cytometric Analysis Reagent Kit and BrdU labeling and detection kit from Roche Diagnostics Corporation, Indianapolis, Ind., U.S.A. All products were used in accordance with manufacturer's directions. Kinase inhibition assays and the histone phosphorylation (p-H3) assay were conducted in duplicate, and the cytotoxicity and HUVEC proliferation assays were conducted in triplicate, in each case with solvent control.
This assay was performed as for the Aurora A kinase assay, using VEGFR2 kinase, CSKtide as the substrate with 6 μM ATP and 1 mM MnCl2, a kinase reaction time of 1 hr, and dilution of the binding reagent 1:1200 in binding buffer A/binding buffer B (1:1).

The target of another experiment is T2, Aurora B kinase (Homo sapiens, UniProt Q96GD4).
T2 construct: purchased BPS Bioscience
Description: Aurora B kinase assay (IMAP fluorescence polarization). The class given is biochemical. The conditions noted are these: 10 μM ATP; rounded to 1 significant figure; read-out: Aur-B IC50.
Source text: as §1
(§2) The kinase reaction was initiated by adding 100 nM fluorescein labeled PKAtide and 10 μM adenosine triphosphate (ATP), and allowed to continue for 45 min at room temperature, after which it was stopped by adding binding reagent (1:400 dilution in binding buffer A). After 30 min of room temperature incubation with shaking, the fluorescence polarization was measured on a LJL plate reader. Aurora B kinase assay: performed as for the Aurora A kinase assay, but using Aurora B kinase instead of Aurora A kinase.

Experiment [1] concerns HCT116 (human colon carcinoma) cells. Description: HCT116 cytotoxicity assay (CellTiter-Glo). The class given is cell-based. The conditions noted are these: HCT-116, 72 h, cytotoxicity, three days culture, read-out: HCT116 IC50.
Source text: as §1
Log-phase cells were trypsinized, collected by centrifugation, and resuspended in a small volume of fresh medium, and the density of viable cells was determined following Trypan Blue staining. Cells were diluted in fresh media (1×10^4 cells/mL for HL60 and 4×10^4 cells/mL for HCT116 cells), the test compounds (concentrations between 0.1 μM and 200 μM, dissolved in DMSO, 50 μL) added immediately after dilution to achieve a final DMSO concentration of 0.5%, then the suspensions added at 150 μL/well to 96-well plates, and incubated overnight to allow attachment in the case of adherent cells. The cells were cultured for three days (about three doubling times). The cells were then collected by centrifugation, and 100 μL of the culture supernatant was replaced by the CellTiter-Glo reagent. After incubation for 15 minutes at room temperature, the plate was read with a luminometer.

Another experiment has as its target T3, Aurora A kinase (Homo sapiens, UniProt O14965).
T3 construct: purchased Upstate Biotech
T3 sequence (O14965 1-403): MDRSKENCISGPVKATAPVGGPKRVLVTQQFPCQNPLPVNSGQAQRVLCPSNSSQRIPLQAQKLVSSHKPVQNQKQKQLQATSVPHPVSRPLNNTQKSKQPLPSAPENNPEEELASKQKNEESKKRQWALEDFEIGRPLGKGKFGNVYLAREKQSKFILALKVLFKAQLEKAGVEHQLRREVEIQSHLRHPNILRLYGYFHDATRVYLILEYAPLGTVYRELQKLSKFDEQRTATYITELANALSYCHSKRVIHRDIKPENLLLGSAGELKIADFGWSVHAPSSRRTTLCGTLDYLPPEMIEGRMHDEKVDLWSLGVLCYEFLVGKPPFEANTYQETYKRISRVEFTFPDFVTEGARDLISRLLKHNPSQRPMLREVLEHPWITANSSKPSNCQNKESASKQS
Description: Aurora A kinase assay (IMAP fluorescence polarization). The class given is biochemical. The settings on record: 10 μM ATP; rounded to 1 significant figure; read-out: Aur-A IC50.
Source text: as §1
as §2, with “Aurora A kinase assay: the test compounds were diluted in dimethylsulfoxide (DMSO, eight concentrations with serial 3-fold dilutions) and incubated (final DMSO concentration 2.5%) with Aurora A kinase at room temperature for 5 min in kinase reaction buffer with 1 mM dithiothreitol (IMAP FP Screening Express). The” for “The”

Another experiment has as its system p-H3 in HCT116 cells. Description: Histone phosphorylation (p-H3) assay. The settings on record: Homo sapiens, HCT-116; HCT116 cells, 4 hr incubation; read-out: p-H3 IC50. The class given is cell-based.
Source text: as §1
Log phase HCT116 cells were seeded at 2.5×10^4 cells/well in a 96-well plate and allowed to attach overnight. The test compounds were diluted in DMSO (8 concentrations with serial 3-fold dilutions) and added to the cells (0.5% DMSO final concentration), and the cells incubated for 4 hr. The cells were then washed three times with cold phosphate-buffered saline (PBS), and lysis buffer was added. After 30 min shaking at 4° C. and centrifugation, the supernatants were transferred to a nitrocellulose membrane by a “dot-blot” apparatus. After washing the wells, the membrane was processed for Western blot. Detection of p-H3 and β-actin was performed on the same membrane with primary rabbit anti-p-H3 and mouse anti-β-actin antibodies followed by secondary goat anti-rabbit IRDye800 and goat anti-mouse AlexaFluor 680 antibodies. The membranes were scanned on an Odyssey scanner.

For experiment [2], the system named is HUVEC-2 (human umbilical vein endothelial cells). Description: HUVEC VEGF-dependent proliferation assay (BrdU). The class given is cell-based. The settings on record: VEGF (25 ng/mL)-dependent proliferation, read-out: HUVEC IC50.
Source text: as §1
HUVEC-2 cells were seeded at 10^4 cells/well in a 96-well plate coated with 0.1% gelatin in complete medium. […] The compounds were serially diluted in DMSO, and added to the cells at 0.5% DMSO final concentration. After 2 hr, VEGF (25 ng/mL) was added; and after a further day, 5-bromo-2-deoxyuridine (BrdU, 10 μM) was added to label proliferating cells, and the cells incubated for another day. The plates were then processed using the Roche BrdU labeling and detection kit, and the VEGF-dependent antiproliferative activity of the compounds determined.

T2 sequence (Q96GD4 whole entry): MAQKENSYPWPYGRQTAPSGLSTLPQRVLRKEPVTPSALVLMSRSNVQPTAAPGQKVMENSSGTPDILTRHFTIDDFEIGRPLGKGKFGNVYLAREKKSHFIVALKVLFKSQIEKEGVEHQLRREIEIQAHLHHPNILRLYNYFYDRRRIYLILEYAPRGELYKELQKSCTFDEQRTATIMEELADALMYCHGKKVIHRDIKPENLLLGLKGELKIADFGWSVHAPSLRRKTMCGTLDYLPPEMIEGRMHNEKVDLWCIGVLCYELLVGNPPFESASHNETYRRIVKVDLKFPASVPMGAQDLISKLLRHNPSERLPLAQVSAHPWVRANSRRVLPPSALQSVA
T1 sequence (P35968 20-1356): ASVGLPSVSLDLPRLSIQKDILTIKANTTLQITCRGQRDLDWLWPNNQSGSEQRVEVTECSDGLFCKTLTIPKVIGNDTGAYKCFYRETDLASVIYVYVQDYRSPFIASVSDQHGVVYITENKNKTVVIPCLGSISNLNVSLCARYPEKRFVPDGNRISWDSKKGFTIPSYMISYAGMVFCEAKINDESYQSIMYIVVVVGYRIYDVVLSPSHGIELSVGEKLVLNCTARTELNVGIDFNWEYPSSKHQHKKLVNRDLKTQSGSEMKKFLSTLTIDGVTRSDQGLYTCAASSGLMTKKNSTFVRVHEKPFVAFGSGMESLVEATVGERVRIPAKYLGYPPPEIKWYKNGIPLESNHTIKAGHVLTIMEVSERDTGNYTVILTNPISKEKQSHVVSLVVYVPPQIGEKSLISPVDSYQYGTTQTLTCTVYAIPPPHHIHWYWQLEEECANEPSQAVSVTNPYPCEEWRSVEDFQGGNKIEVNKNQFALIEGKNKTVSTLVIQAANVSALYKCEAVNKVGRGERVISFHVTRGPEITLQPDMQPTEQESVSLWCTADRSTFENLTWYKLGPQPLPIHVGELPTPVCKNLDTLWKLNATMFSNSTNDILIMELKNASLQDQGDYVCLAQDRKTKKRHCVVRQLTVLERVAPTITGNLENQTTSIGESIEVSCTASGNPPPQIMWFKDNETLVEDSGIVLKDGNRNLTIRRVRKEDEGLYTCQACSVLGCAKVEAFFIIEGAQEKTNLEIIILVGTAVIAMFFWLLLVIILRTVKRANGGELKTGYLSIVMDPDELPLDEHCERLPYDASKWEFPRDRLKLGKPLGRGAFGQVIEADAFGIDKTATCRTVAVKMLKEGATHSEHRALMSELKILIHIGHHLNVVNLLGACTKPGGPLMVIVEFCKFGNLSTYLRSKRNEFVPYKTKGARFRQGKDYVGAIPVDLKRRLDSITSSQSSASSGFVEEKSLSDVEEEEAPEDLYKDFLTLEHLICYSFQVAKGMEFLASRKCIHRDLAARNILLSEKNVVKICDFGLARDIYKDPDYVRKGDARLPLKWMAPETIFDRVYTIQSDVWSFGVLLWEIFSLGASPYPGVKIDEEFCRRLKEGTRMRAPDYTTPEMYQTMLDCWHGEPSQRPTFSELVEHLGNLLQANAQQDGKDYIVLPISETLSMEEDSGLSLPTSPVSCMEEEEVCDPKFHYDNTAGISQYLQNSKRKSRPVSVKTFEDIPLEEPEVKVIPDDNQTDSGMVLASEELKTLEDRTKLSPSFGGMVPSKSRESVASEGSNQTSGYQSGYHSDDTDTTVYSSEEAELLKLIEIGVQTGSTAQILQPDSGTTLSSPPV

In the case of `CN(C)CCOc1ccc2c(c1)S/C(=C(/C(N)=O)c1nccc(C(F)(F)F)n1)N2` [Compound 116A], the half-inhibitory concentration (IC50) on VEGFR2 kinase was 0.009 µM; on Aurora B kinase, 0.008 µM; in experiment [1] it was 0.4 µM; at Aurora A kinase it was 0.04 µM; in the experiment on p-H3 in HCT116 cells, 0.08 µM; in experiment [2], 0.1 µM.
Consider `NC(=O)/C(=C1\Nc2ccc(N3CCC(N4CCOCC4)CC3)cc2S1)c1nccc(C(F)(F)F)n1` [Compound 122A], for which the half-maximal inhibitory concentration (IC50) on VEGFR2 kinase stood at 0.02 µM; at Aurora B kinase, 0.009 µM; in experiment [1] it was 4 µM; on Aurora A kinase, 0.02 µM; with p-H3 in HCT116 cells it was 0.4 µM; in experiment [2], 7 µM.
Turning to `Cn1ccnc1-c1ccc2c(c1)S/C(=C(/C(N)=O)c1nccc(C(F)(F)F)n1)N2` [Compound 106A], the IC50 against VEGFR2 kinase stood at 0.03 µM; on Aurora B kinase it was 0.02 µM; in experiment [1], 2 µM; on Aurora A kinase, 0.003 µM; with p-H3 in HCT116 cells, 0.9 µM; in experiment [2], 0.08 µM.
Regarding `NC(=O)C(=C1Nc2ccccc2N1)c1ncc(C(=O)NCCN2CCOCC2)c(C(F)(F)F)n1` [Compound 135A], the IC50 at VEGFR2 kinase worked out at 0.1 µM; on Aurora B kinase it was 0.02 µM; in experiment [1] it was 4 µM; at Aurora A kinase it was 0.03 µM; in the experiment with p-H3 in HCT116 cells, 0.5 µM; in experiment [2], 0.6 µM.
Consider `CCN1CCN(CCCNC(=O)c2ccc3c(c2)N/C(=C(/C(N)=O)c2nccc(C(F)(F)F)n2)N3)CC1` [Compound 55A], for which the IC50 came out at 0.02 µM on VEGFR2 kinase; 0.02 µM at Aurora B kinase; 0.3 µM in experiment [1]; 0.02 µM at Aurora A kinase; 0.7 µM in the experiment on p-H3 in HCT116 cells; 0.05 µM in experiment [2].
As to `NC(=O)/C(=C1\Nc2ccc(S(=O)(=O)NCCN3CCOCC3)cc2S1)c1nccc(C(F)(F)F)n1` [Compound 128A], the IC50 is 0.06 µM against VEGFR2 kinase; 0.02 µM on Aurora B kinase; 0.9 µM in experiment [1]; 0.01 µM at Aurora A kinase; 0.6 µM in the experiment with p-H3 in HCT116 cells; 0.06 µM in experiment [2].
As to `COc1ccnc(/C(C(N)=O)=C2/Nc3ccccc3S2)n1` [Compound 16A], the IC50 against VEGFR2 kinase was 0.3 µM; on Aurora B kinase it was 0.02 µM; in experiment [1] it was 2 µM; on Aurora A kinase, 0.1 µM; with p-H3 in HCT116 cells, 2 µM; in experiment [2], 2 µM.
On to `CN1CCN(C(=O)c2ccc3c(c2)S/C(=C(/C(N)=O)c2nccc(C(F)(F)F)n2)N3)CC1` [Compound 59A], for which the 50% inhibitory concentration (IC50) on VEGFR2 kinase is 0.006 µM; at Aurora B kinase, 0.02 µM; in experiment [1], 0.4 µM; at Aurora A kinase, 0.008 µM; in the experiment with p-H3 in HCT116 cells, 0.09 µM; in experiment [2], 0.05 µM.
Consider `NC(=O)C(=C1Nc2ccccc2N1)c1ncc(C(=O)NCCCN2CCOCC2)c(C(F)(F)F)n1` [Compound 132A], for which the IC50 on VEGFR2 kinase was 0.1 µM; at Aurora B kinase, 0.02 µM; in experiment [1], 1 µM; at Aurora A kinase, 0.06 µM; in the experiment with p-H3 in HCT116 cells, 2 µM; in experiment [2] it was 0.6 µM.
Take `NC(=O)/C(=C1\Nc2ccc(OCCCN3CCOCC3)cc2S1)c1nccc(C(F)(F)F)n1` [Compound 113A]: the IC50 on VEGFR2 kinase was found to be 0.04 µM; on Aurora B kinase, 0.02 µM; in experiment [1], 0.6 µM; on Aurora A kinase, 0.03 µM; with p-H3 in HCT116 cells, 0.4 µM; in experiment [2], 0.2 µM.
For `NC(=O)/C(=C1\Nc2ccc(C(=O)Nc3ccc(CN4CCOCC4)cc3)cc2N1)c1nccc(C(F)(F)F)n1` [Compound 72A], the IC50 against VEGFR2 kinase stood at 0.02 µM; at Aurora B kinase, 0.02 µM; in experiment [1], 0.2 µM; at Aurora A kinase, 0.02 µM; in the experiment with p-H3 in HCT116 cells it was 0.3 µM; in experiment [2], 0.08 µM.
Turning to `CN1CCN(c2ccc3c(c2)N/C(=C(/C(N)=O)c2nccc(C(F)(F)F)n2)N3)CC1` [Compound 119A], the half-inhibitory concentration (IC50) was found to be 0.006 µM at VEGFR2 kinase; 0.006 µM on Aurora B kinase; 1 µM in experiment [1]; 0.009 µM on Aurora A kinase; 0.2 µM in the experiment with p-H3 in HCT116 cells; 0.2 µM in experiment [2].
On to `COc1ccnc(/C(C(N)=O)=C2/Nc3ccc(CN4CCOCC4)cc3S2)n1` [Compound 92A], for which the IC50 is 0.4 µM against VEGFR2 kinase; 0.03 µM at Aurora B kinase; 5 µM in experiment [1]; 0.07 µM on Aurora A kinase; 0.5 µM in the experiment on p-H3 in HCT116 cells; 0.06 µM in experiment [2].
In the case of `CN1CCN(CCNC(=O)c2ccc3c(c2)S/C(=C(/C(N)=O)c2nccc(C(F)(F)F)n2)N3)CC1` [Compound 57A], the IC50 on VEGFR2 kinase worked out at 0.01 µM; at Aurora B kinase, 0.02 µM; in experiment [1], 0.1 µM; at Aurora A kinase it was 0.02 µM; in the experiment with p-H3 in HCT116 cells, 0.1 µM; in experiment [2] it was 0.02 µM.
For `NCCNC(=O)c1ccc2c(c1)S/C(=C(/C(N)=O)c1nccc(C(F)(F)F)n1)N2` [Compound 63A], the IC50 against VEGFR2 kinase came out at 0.005 µM; at Aurora B kinase, 0.03 µM; in experiment [1], 0.2 µM; on Aurora A kinase, 0.03 µM; in the experiment on p-H3 in HCT116 cells, 0.4 µM; in experiment [2], 0.06 µM.
In the case of `CN1CCN(C(=O)c2ccc3c(c2)N/C(=C(/C(N)=O)c2nccc(C(F)(F)F)n2)N3)CC1` [Compound 58A], the IC50 against VEGFR2 kinase is 0.009 µM; at Aurora B kinase, 0.005 µM; in experiment [1], 0.4 µM; on Aurora A kinase it was 0.009 µM; in the experiment with p-H3 in HCT116 cells, 0.5 µM; in experiment [2] it was 0.06 µM.
